Tested on: pS6K1 in MCF7
Test: AlphaLISA Ultra pS6K1 Assay
Format: cell-based
Settings: Homo sapiens, 1.5 h; MCF7 cells, 90 min incubation
Protocol: Example 74: AlphaLISA Ultra pS6K1 Assay
Assay Protocol: • 1. Seed MCF-7 cells in Corning 3701 plate and incubate for 20˜24 hour. 12,000˜16,000 cells will be seeded in 36 μL medium per well. • 2. Change the culture medium with fresh medium and incubate for another 2 hours. • 3. Add 12 μL (4×) compounds into the cell plate by HAMILTON. Final DMSO concentration is 0.5%. Incubate for 90 minutes. • 4. Aspirate 38 μL by HAMILTON, 10 μL rest per well. • 5. Add 10 μL 2× lysis buffer using HAMILTON; total volume in wells is 20 μL. Allow cells to shake for 30 min. Cover plate by plastic foil and store plate at −80° C. up to analysis. • 6. Thaw cell lysate at RT and transfer 10 μL lysate to assay plate (Optiplate-384). • 7. Add 5 μL acceptor beads into assay plate and incubation for 2 hours • 8. Add 5 μL donor beads and incubation for 2 hours • 9. Count the plate by EnSpire Multimode Plate Reader

Structure (SMILES)	IC50
CO[C@@H]1C[C@H](C[C@@H](C)[C@@H]2CC(=O)[C@H](C)/C=C(\C)[C@@H](O)[C@@H](OC)C(=O)[C@H](C)C[C@H](C)/C=C/C=C/C=C(\C)[C@H](OCCOc3ccccc3)C[C@@H]3CC[C@@H](C)[C@@](O)(O3)C(=O)C(=O)N3CCCC[C@H]3C(=O)O2)CC[C@H]1OCCO [Example I-6, (26E,28E,30E,31E,38R,39S,40R,41R,43S,45S,47R,48S,49R,50R,59R)-49,59-dihydroxy-48-[(1R)-2-[(1S,3R,4R)-4-(2-hydroxyethoxy)-3-methoxy-cyclohexyl]-1-methyl-ethyl]-50-methoxy-38,39,40,41,51,52-hexamethyl-47-(2-phenoxyethoxy)-69,70-dioxa-60-azatricyclohexatriaconta-26,28,30(51),31(52)-tetraene-53,54,55,56,57-pentone]	1 to 10 nM
CO[C@@H]1C[C@H](C[C@@H](C)[C@@H]2CC(=O)[C@H](C)/C=C(\C)[C@@H](O)[C@@H](OC)C(=O)[C@H](C)C[C@H](C)/C=C/C=C/C=C(\C)[C@H](OCCOC3COC3)C[C@@H]3CC[C@@H](C)[C@@](O)(O3)C(=O)C(=O)N3CCCC[C@H]3C(=O)O2)CC[C@H]1OCCO [Example I-8, (23E,25E,27E,28E,34R,35S,36R,37R,39S,41S,43R,44S,46R,47R,56R)-46,56-dihydroxy-44-[(1R)-2-[(1S,3R,4R)-4-(2-hydroxyethoxy)-3-methoxy-cyclohexyl]-1-methyl-ethyl]-47-methoxy-34,35,36,37,48,49-hexamethyl-43-[2-(oxetan-3-yloxy)ethoxy]-67,68-dioxa-57-azatricyclohexatriaconta-23,25,27(48),28(49)-tetraene-50,51,52,53,54-pentone]	1 to 10 nM
CO[C@@H]1C[C@H](C[C@@H](C)[C@@H]2CC(=O)[C@H](C)/C=C(\C)[C@@H](O)[C@@H](OC)C(=O)[C@H](C)C[C@H](C)/C=C/C=C/C=C(\C)C(OCC3CCCCC3)C[C@@H]3CC[C@@H](C)[C@@](O)(O3)C(=O)C(=O)N3CCCC[C@H]3C(=O)O2)CC[C@H]1OCCO (stereo partly drawn) [Example I-10, (26E,28E,30E,31E,36R,37S,38R,39R,42S,44S,47S,48R,49R,58R)-46-(cyclohexylmethoxy)-48,58-dihydroxy-47-[(1R)-2-[(1S,3R,4R)-4-(2-hydroxyethoxy)-3-methoxy-cyclohexyl]-1-methyl-ethyl]-49-methoxy-36,37,38,39,50,51-hexamethyl-68,69-dioxa-59-azatricyclohexatriaconta-26,28,30(50),31(51)-tetraene-52,53,54,55,56-pentone]	1 to 10 nM
CO[C@@H]1C[C@H](C[C@@H](C)[C@@H]2CC(=O)[C@H](C)/C=C(\C)[C@@H](O)[C@@H](OC)C(=O)[C@H](C)C[C@H](C)/C=C/C=C/C=C(\C)C(OCC3CCCCO3)C[C@@H]3CC[C@@H](C)[C@@](O)(O3)C(=O)C(=O)N3CCCC[C@H]3C(=O)O2)CC[C@H]1OCCO (stereo partly drawn) [Example I-11, (25E,27E,29E,30E,35R,36S,37R,38R,40S,43S,46S,47R,48R,57R)-47,57-dihydroxy-46-[(1R)-2-[(1S,3R,4R)-4-(2-hydroxyethoxy)-3-methoxy-cyclohexyl]-1-methyl-ethyl]-48-methoxy-35,36,37,38,49,50-hexamethyl-45-(tetrahydropyran-2-ylmethoxy)-68,69-dioxa-58-azatricyclohexatriaconta-25,27,29(49),30(50)-tetraene-51,52,53,54,55-pentone]	< 0.1 nM
CO[C@@H]1C[C@H](C[C@@H](C)[C@@H]2CC(=O)[C@H](C)/C=C(\C)[C@@H](O)[C@@H](OC)C(=O)[C@H](C)C[C@H](C)/C=C/C=C/C=C(\C)C(OCCOc3ccccc3)C[C@@H]3CC[C@@H](C)[C@@](O)(O3)C(=O)C(=O)N3CCCC[C@H]3C(=O)O2)CC[C@H]1OCCO (stereo partly drawn) [Example I-12, (26E,28E,30E,31E,38R,39S,40R,41R,43S,45S,48S,49R,50R,59R)-49,59-dihydroxy-48-[(1R)-2-[(1S,3R,4R)-4-(2-hydroxyethoxy)-3-methoxy-cyclohexyl]-1-methyl-ethyl]-50-methoxy-38,39,40,41,51,52-hexamethyl-47-(2-phenoxyethoxy)-69,70-dioxa-60-azatricyclohexatriaconta-26,28,30(51),31(52)-tetraene-53,54,55,56,57-pentone]	0.1 to 1 nM
CO[C@@H]1C[C@H](C[C@@H](C)[C@@H]2CC(=O)[C@H](C)/C=C(\C)[C@@H](O)[C@@H](OC)C(=O)[C@H](C)C[C@H](C)/C=C/C=C/C=C(\C)C(OCCOC3CCOCC3)C[C@@H]3CC[C@@H](C)[C@@](O)(O3)C(=O)C(=O)N3CCCC[C@H]3C(=O)O2)CC[C@H]1OCCO (stereo partly drawn) [Example I-13, (25E,27E,29E,30E,36R,37S,38R,39R,42S,44S,47S,48R,49R,58R)-48,58-dihydroxy-47-[(1R)-2-[(1S,3R,4R)-4-(2-hydroxyethoxy)-3-methoxy-cyclohexyl]-1-methyl-ethyl]-49-methoxy-36,37,38,39,50,51-hexamethyl-46-(2-tetrahydropyran-4-yloxyethoxy)-69,70-dioxa-59-azatricyclohexatriaconta-25,27,29(50),30(51)-tetraene-52,53,54,55,56-pentone]	1 to 10 nM
CO[C@@H]1C[C@H](C[C@@H](C)[C@@H]2CC(=O)[C@H](C)/C=C(\C)[C@@H](O)[C@@H](OC)C(=O)[C@H](C)C[C@H](C)/C=C/C=C/C=C(\C)C(OCCOC3COC3)C[C@@H]3CC[C@@H](C)[C@@](O)(O3)C(=O)C(=O)N3CCCC[C@H]3C(=O)O2)CC[C@H]1OCCO (stereo partly drawn) [Example I-14, (23E,25E,27E,28E,34R,35S,36R,37R,39S,41S,44S,46R,47R,56R)-46,56-dihydroxy-44-[(1R)-2-[(1S,3R,4R)-4-(2-hydroxyethoxy)-3-methoxy-cyclohexyl]-1-methyl-ethyl]-47-methoxy-34,35,36,37,48,49-hexamethyl-43-[2-(oxetan-3-yloxy)ethoxy]-67,68-dioxa-57-azatricyclohexatriaconta-23,25,27(48),28(49)-tetraene-50,51,52,53,54-pentone]	0.1 to 1 nM
COCCOc1ccc(C2C[C@@H]3CC[C@@H](C)[C@@](O)(O3)C(=O)C(=O)N3CCCC[C@H]3C(=O)O[C@H]([C@H](C)C[C@@H]3CC[C@@H](O)[C@H](OC)C3)CC(=O)[C@H](C)/C=C(\C)[C@H](O)[C@@H](OC)C(=O)[C@H](C)C[C@H](C)/C=C/C=C/C=C/2C)c(OC)c1 (stereo partly drawn) [Example I-24, (26E,28E,30E,31E,38R,39S,40R,41R,43S,45S,48S,49S,50R,59R)-49,59-dihydroxy-48-[(1R)-2-[(1S,3R,4R)-4-hydroxy-3-methoxy-cyclohexyl]-1-methyl-ethyl]-50-methoxy-46-[2-methoxy-4-(2-methoxyethoxy)phenyl]-38,39,40,41,51,52-hexamethyl-69,70-dioxa-60-azatricyclohexatriaconta-26,28,30(51),31(52)-tetraene-53,54,55,56,57-pentone]	1 to 10 nM
COCCS(=O)(=O)CCOC1C[C@@H]2CC[C@@H](C)[C@@](O)(O2)C(=O)C(=O)N2CCCC[C@H]2C(=O)O[C@H]([C@H](C)C[C@@H]2CC[C@@H](OCCO)[C@H](OC)C2)CC(=O)[C@H](C)/C=C(\C)[C@@H](O)[C@@H](OC)C(=O)[C@H](C)C[C@H](C)/C=C/C=C/C=C/1C (stereo partly drawn) [Example I-25, (22E,24E,26E,27E,35R,36S,37R,38R,40S,42S,45S,46R,47R,56R)-46,56-dihydroxy-45-[(1R)-2-[(1S,3R,4R)-4-(2-hydroxyethoxy)-3-methoxy-cyclohexyl]-1-methyl-ethyl]-47-methoxy-44-[2-(2-methoxyethylsulfonyl)ethoxy]-35,36,37,38,48,49-hexamethyl-68,69-dioxa-57-azatricyclohexatriaconta-22,24,26(48),27(49)-tetraene-50,51,52,53,54-pentone]	0.1 to 1 nM
COCCS(=O)(=O)CCOC1C[C@@H]2CC[C@@H](C)[C@@](O)(O2)C(=O)C(=O)N2CCCC[C@H]2C(=O)O[C@H]([C@H](C)C[C@@H]2CC[C@@H](O)[C@H](OC)C2)CC(=O)[C@H](C)/C=C(\C)[C@@H](O)[C@@H](OC)C(=O)[C@H](C)C[C@H](C)/C=C/C=C/C=C/1C (stereo partly drawn) [Example I-26, (22E,24E,26E,27E,33R,34S,35R,36R,38S,40S,43S,44R,45R,54R)-44,54-dihydroxy-43-[(1R)-2-[(1S,3R,4R)-4-hydroxy-3-methoxy-cyclohexyl]-1-methyl-ethyl]-45-methoxy-42-[2-(2-methoxyethylsulfonyl)ethoxy]-33,34,35,36,46,47-hexamethyl-66,67-dioxa-55-azatricyclohexatriaconta-22,24,26(46),27(47)-tetraene-48,49,50,51,52-pentone]	0.1 to 1 nM
CO[C@@H]1C[C@H](C[C@@H](C)[C@@H]2CC(=O)[C@H](C)/C=C(\C)[C@@H](O)[C@@H](OC)C(=O)[C@H](C)C[C@H](C)/C=C/C=C/C=C(\C)[C@H](OCCCC(N)=O)C[C@@H]3CC[C@@H](C)[C@@](O)(O3)C(=O)C(=O)N3CCCC[C@H]3C(=O)O2)CC[C@H]1OCCO [Example I-28, 4-[[(21E,23E,25E,26E,33R,34S,35R,36R,38S,40S,42R,43S,44R,45R,55R)-44,55-dihydroxy-43-[(1R)-2-[(1S,3R,4R)-4-(2-hydroxyethoxy)-3-methoxy-cyclohexyl]-1-methyl-ethyl]-45-methoxy-33,34,35,36,46,47-hexamethyl-48,49,50,51,52-pentaoxo-67,68-dioxa-57-azatricyclohexatriaconta-21,23,25(46),26(47)-tetraen-42-yl]oxy]butanamide]	10 to 100 nM

From US11819476B2, “Rapamycin analogs and uses thereof” (Janssen Pharmaceutica NV, priority 2019, dated 2023)
